Experimental data from patent publication US20140275102A1, “Solid State Forms of 6-[4-[3-((R)-2-Methylpyrrolidine-1-yl)-propoxy]phenyl] 2H-pyridazine-3-one Hydrochloride” (Cephalon Inc., priority 2013, published 2014).
Values belong to the molecule of their own block, whether it stands above or below them.

Key:
Assay type in all cases: physicochemical
[1] = Gravimetric Vapor Sorption (GVS); settings: for Moisture uptake / XRPD analysis of the after GVS sample: GVS 70-0-90% RH
Protocol: Gravimetric Vapor Sorption experiments have been carried out using the DVS-HT instrument (Surface Measurement Systems, London, UK). This instrument measures the uptake and loss of vapor gravimetrically using a recording ultra-microbalance with a mass resolution of ±0.1 μg. […] The desired temperature is maintained at ±0.1° C. […] (3 cycles). The DVS experiment was started at 70% RH (red line) to ensure that there was no moisture loss. The sample was kept at 70% RH for 2 hours. […] After each cycle the moisture uptake decreases to 21, 15, and 2.3% respectively at 90% RH. Significant polymorphic changes were observed by XRPD analysis of the “after GVS” samples.

[2] = Solid-solid transition on storage at controlled humidity, 25° C. (XRPD)
Protocol: Approximately 100 mg of Form A1 was exposed to 100% RH at 25° C. over 1 day. Analysis by XRPD confirmed quantitative conversion of the material to Form […].

[3] = Stability to mechanical stress (grinding, XRPD); settings: after thirty minutes of grinding
Protocol: A Wig-1-Bug (Piketech, USA) was used to grind Forms A1 and H-4A1. Each sample (50 mg) was ground for periods of 5, 10, 15 and 30 minutes. Each grinding was carried out in a 2.82 cm^3 container using 0.9 g stainless steel ball ([…]). The vial was swung through a 6.5° arc at 3200 rpm, causing the ball to strike the end of the vial at over 100 Hz.

[4] = Solid state stress stability at 40° C./75% RH (XRPD, stability-indicating HPLC); settings: for Area Purity (%): 40° C./75% RH, HPLC
Protocol: Powder X-Ray Diffraction patterns were recorded on a PANalytical X Pert Pro diffractometer equipped with an X celerator detector using Cu Kα radiation at 40 kV and 40 mA. Kα1 radiation is obtained with a highly oriented crystal (Ge111) incident beam monochromator. A 10 mm beam mask, and fixed (¼°) divergence and anti-scatter (⅛°) slits were inserted on the incident beam side. A fixed 0.10 mm receiving slit was inserted on the diffracted beam side. […] The sample was spread on silicon zero background (ZBG) plate for the measurement. The sample was rotated at 4°/min on a PANalytical PW3064 Spinner.
Typically 10 μL aliquots of the sample solutions were diluted to 1 mL with acetonitrile and the assay concentrations were determined from an average of duplicate injections using the following HPLC method. The purity and impurity analyses are done using conventional HPLC.
Stress stability studies were performed to assess the influence of temperature and humidity on stability of Forms A1 and H4A1. A stability-indicating HPLC assay method was developed for quantification of Compound 1. The developed method, described above in section VII, is specific, accurate, precise and robust.

[5] = Variable temperature XRPD (VT-XRPD)
Protocol: Variable temperature studies were performed with an Anton Paar TTK450 temperature chamber under computer control through an Anton Paar TCU100 temperature control unit. Typically the measurements were done with a nitrogen flow through the camera. Two measurement schemes were used, restricted and continuous. In the restricted mode, measurements were made, only after the TK450 chamber reached the requested temperature. In the continuous mode, the sample was heated at 10° C./minute and fast scans were measured as the temperature changed. After the requested temperature was reached, the sample was cooled at 35° C./minute and a slow scan measured 25° C. The temperatures chosen were based on DSC results. For the diffractometer set-up a 10 mm beam mask, 0.04 radian Soller slits and fixed (1⁄4°) divergence and anti-scatter (1⁄8°) slits were inserted on the incident beam side. A fixed 0.10 mm receiving slit, 0.04 radian Soller slits and a 0.02 mm Nickel filter were inserted on the diffracted beam side. […] A variable temperature study was performed for Form A1 according to the protocol set out in II above.

- Hydrate formation under GVS conditions ([1]; GVS, 0-90% RH cycles): did not appear to form a hydrate
- Hygroscopicity (adsorption and desorption curves) ([1]; GVS, 0-90% RH cycles): not hygroscopic
- Amount of moisture adsorbed ([1]; GVS, at 90% RH): approximately 1.8%
- Amount of moisture adsorbed ([1]; GVS, relative humidity not printed (below 90% RH)): less than 0.8%
- XRPD before and after GVS ([1]; after GVS, 0-90% RH cycles): no significant changes after GVS
- Changes on storage as assessed by XRPD ([4]; 4 weeks of storage at 40 degrees C. at 75% relative humidity): No significant changes
- Chemical degradation ([4]; 40° C./75% RH after 4 weeks): chemical degradation was not observed
- Water uptake from the environment in the solid state ([4]; 40° C./75% RH after 4 weeks): not observed to take up water
- Area Purity (%) ([4]; 0 days, hydrochloride): 99.5%
- Area Purity (%) ([4]; 7 days, hydrochloride): 99.6%
- Area Purity (%) ([4]; 14 days, hydrochloride): 99.7%
- Area Purity (%) ([4]; 28 days): 99.5%
Compound: C[C@@H]1CCCN1CCCOc1ccc(-c2ccc(=O)[nH]n2)cc1.Cl [Form A1, 6-[4-[3-((R)-2-methylpyrrolidine-1-yl)-propoxy]phenyl]2H-pyridazine-3-one hydrochloride]
- XRPD after exposure to humidity ([2]; 100% RH at 25° C. over 1 day): quantitative conversion of the material to Form H4A1
- Change in crystal form on grinding (XRPD) [3]: did not generate a change in crystal form
- Crystallinity by XRPD after grinding [3]: crystallinity had been significantly reduced
- Solid-solid transformation on heating (VT-XRPD) ([5]; temperature range of 20° C. to 250° C.): No solid-solid transformation was observed

- Temperature at which polymorphic transformation to Form A1 was observed (VT-XRPD) ([5]; Form B1 made by dehydrating Form H4A1 at 25-100° C., 0% RH): 220 °C
Compound: C[C@@H]1CCCN1CCCOc1ccc(-c2ccc(=O)[nH]n2)cc1.Cl [Form B1, 6-[4-[3-((R)-2-methylpyrrolidine-1-yl)-propoxy]phenyl]2H-pyridazine-3-one hydrochloride]

- Moisture uptake ([1]; at 90% RH, first cycle): 21%
- Moisture uptake ([1]; at 90% RH, second cycle): 15%
- Moisture uptake ([1]; at 90% RH, third cycle): 2.3%
- XRPD analysis of the after GVS sample ([1]; first cycle): mixture of Forms A1 and H4A1
- XRPD analysis of the after GVS sample ([1]; second cycle): mixture of Forms A1 and H4A1
- Area Purity (%) ([4]; 0 days, hydrochloride): 99.6%
- Area Purity (%) ([4]; 7 days, hydrochloride): 99.5%
- Area Purity (%) ([4]; 14 days, hydrochloride): 99.5%
- Area Purity (%) ([4]; 28 days): 99.5%
- Physical and chemical stability on storage ([4]; 28 days at 40° C. and 75% RH): physically and chemically stable
Compound: C[C@@H]1CCCN1CCCOc1ccc(-c2ccc(=O)[nH]n2)cc1.Cl [Form H4A1, 6-[4-[3-((R)-2-methylpyrrolidine-1-yl)-propoxy]phenyl]2H-pyridazine-3-one hydrochloride]
- XRPD analysis of the after GVS sample ([1]; third cycle): Complete conversion of Form H4A1 to Form A1
- XRPD after storage ([2]; 25° C./0% RH for 7 days): quantitative conversion of the material to Form A1
